Values joined by “and” are separate entries in the source; they are usually repeats but may differ in a detail not shown here. Identical values can stand only once.
Assays:
[1] = system: ObaO_WT; assay: Thermal shift assay (TSA); assay type: binding, Pseudomonas fluorescens
Experimental: (§1) The EcThrRS_WT and L489M/G463S/G463S_Q484A/G463A/A316N mutant proteins, ObaO_WT and ObaO_S464G mutant proteins were prepared at 2 μM in buffer containing 25 mM Tris-HCl pH 7.5, 200 mM NaCl, and 20 μM OB (GlpBio, US) or BN (GlpBio, US) or ddH2O in equal volumes since the compounds were diluted with ddH2O to 1 mM as stocks. […] SYPRO orange dye (Sigma, USA) was diluted in assay buffer containing 25 mM Tris-HCl pH 7.5 and 200 mM NaCl to a 40× concentration, and was added to the mixture to a final 4× concentration. Aliquots (20 μL) were added to a 96-well PCR plate. After complete mixing, the final solutions were heated from 25 to 95 °C at a rate of 0.015 °C/s, and fluorescence signals were monitored by QuantStudio 3 (Applied Biosystems by Thermo Fisher Scientific, USA). The melting temperature (Tm) was calculated through a previously established method[56],[57].

[2] = system: ObaO_S464G; assay: Thermal shift assay (TSA); assay type: binding, Pseudomonas fluorescens
Experimental: as §1

[3] = target: T1, EcThrRS_L489M (Escherichia coli, UniProt P0A8M3, L489M); assay: ATP hydrolysis assay; assay type: biochemical; details: for ATP hydrolysis activity, inhibitory curve data point: OB, replicates, sheet Fig.2b
T1 construct: The E. coli ThrRS (residues 242-642, Supplementary Note 1) wild type; 6xHis (C); made in house; host or cells: E. coli BL21 (DE3)
T1 sequence (P0A8M3 242-642 L489M): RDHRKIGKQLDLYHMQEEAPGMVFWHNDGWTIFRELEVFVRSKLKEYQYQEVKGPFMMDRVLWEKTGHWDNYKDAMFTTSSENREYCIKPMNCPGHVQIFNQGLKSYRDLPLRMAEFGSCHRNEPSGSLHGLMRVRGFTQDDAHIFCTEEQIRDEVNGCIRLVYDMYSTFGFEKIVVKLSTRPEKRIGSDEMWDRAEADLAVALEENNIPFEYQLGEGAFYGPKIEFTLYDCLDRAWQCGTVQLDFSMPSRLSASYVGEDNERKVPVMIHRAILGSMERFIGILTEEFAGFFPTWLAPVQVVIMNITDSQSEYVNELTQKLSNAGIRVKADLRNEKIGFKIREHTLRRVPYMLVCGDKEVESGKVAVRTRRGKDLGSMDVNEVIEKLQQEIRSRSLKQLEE
Experimental: 200 nM EcThrRS wide type and mutants, ObaO and ObaO_S464G mutant were incubated with serially diluted OB (0 to 10 μM for EcThrRS, 0 to 40 μM for ObaO) in a buffer containing 25 mM HEPES pH 7.5, 50 mM NaCl, 40 mM MgCl2, 30 mM KCl, 0.01 mg/mL bovine serum albumin (BSA), and 0.004% Tween-20 at 37 °C for 4 h and then mixed 1:1 with a substrate mixture containing 4 μM ATP, 40 μM L-threonine, 25 mM HEPES pH 7.5, 50 mM NaCl, 40 mM MgCl2, 30 mM KCl, 0.01 mg/mL BSA, and 0.004% Tween-20. The ATP hydrolysis reaction was performed at 37 °C for 4 h.
After incubation, the detection solution from the Kinase-Glo® luminescent kit (Promega, USA) was added to the reaction system at a 1:1 ratio, and the mixture was gently shaken for 10 min. The chemiluminescence signal was measured using a microplate reader (Tecan, USA). All experiments were performed in four replicates. The data were processed using GraphPad Prism 8 software.

[4] = 2 μM protein, 20 μM compound, mean n = 4

O=C(N[C@@H]1C(=O)O[C@@H]1Cc1ccc([N+](=O)[O-])cc1)c1cccc(O)c1O [OB, Obafluorin]
ΔTm (increase of Tm) [1, 4]: 3.2 °C
ΔTm, single replicates ([1]; source data sheet Fig.S11a, ObaO_WT, in °C (unit assumed)): 3.257 and 4.712 and 2.142 and 2.576
ΔTm (increase of Tm) [2, 4]: 14.1 °C
ΔTm, single replicates ([2]; source data sheet Fig.S11a, ObaO_S464G, in °C (unit assumed)): 14.753 and 14.195 and 14.134 and 13.328
IC50 ([3]; ATP hydrolysis activity): 215 nM
ATP hydrolysis activity, inhibitory curve data point ([3]; Log10 Conc. 3.097, L489M): 14.911 and 30.795 and 20.792 and 22.166
ATP hydrolysis activity, inhibitory curve data point ([3]; Log10 Conc. 3.398, L489M): 25.404 and -0.594 and -13.763 and 3.682
ATP hydrolysis activity, inhibitory curve data point ([3]; Log10 Conc. 3.699, L489M): 26.774 and 18.620 and -26.210 and 6.396
ATP hydrolysis activity, inhibitory curve data point ([3]; Log10 Conc. 4.000, L489M): 5.096 and 5.493 and 1.083 and 8.709

— publication PMC11252418, “Specific glycine-dependent enzyme motion determines the potency of conformation selective inhibitors of threonyl-tRNA synthetase” (Communications Biology, 2024)
